ChEMBL document CHEMBL3885881, “DrugMatrix”

Species on record: Rattus norvegicus
Experiment: DrugMatrix - Regimen: Daily Repeat
Format: toxicity, organism-based, Sprague-Dawley
Parameters: regimen Daily Repeat, gender Male, age 6-8 weeks
Settings: in vivo, po, route oral GAVAGE, […]; for ABSOLUTE BASOPHIL / ABSOLUTE EOSINOPHIL / ABSOLUTE LYMPHOCYTE / ABSOLUTE MONOCYTE / ABSOLUTE SEGMENTED NEUTROPHIL / BASOPHIL / EOSINOPHIL / ERYTHROCYTE COUNT / HEMATOCRIT / HEMOGLOBIN / LEUKOCYTE COUNT / LYMPHOCYTE / MEAN CORPUSCULAR HEMOGLOBIN / MEAN CORPUSCULAR HEMOGLOBIN CONCENTRATION / MEAN CORPUSCULAR VOLUME / MONOCYTE / NEUTROPHIL / NUCLEATED RED BLOOD CELLS / PLATELET COUNT: tissue Blood; for ALANINE AMINOTRANSFERASE / ALBUMIN / ALKALINE PHOSPHATASE / ASPARTATE AMINOTRANSFERASE / BLOOD UREA NITROGEN / CARBON DIOXIDE / CHLORIDE / CHOLESTEROL / CREATINE PHOSPHOKINASE / CREATININE / GLUCOSE / LACTATE DEHYDROGENASE / LIPASE / PHOSPHORUS / POTASSIUM / SODIUM / TOTAL BILIRUBIN / TOTAL PROTEIN / URIC ACID: tissue Plasma
[1] = 0 mg/kg, 72 h, dose level Control, time 3 day
[2] = 0 mg/kg, 120 h, dose level Control, time 5 day
[3] = 67 mg/kg, 72 h, dose level Low, time 3 day
[4] = 67 mg/kg, 120 h, dose level Low, time 5 day

## Cc1cccc(C)c1NC(=O)C(C)N (stereo unspecified) [TOCAINIDE]
[1]
  ABSOLUTE BASOPHIL: 0 CELLS/uL
  ABSOLUTE EOSINOPHIL: 41.83 CELLS/uL
  ABSOLUTE LYMPHOCYTE: 8545.5 CELLS/uL
  ABSOLUTE MONOCYTE: 240 CELLS/uL
  ABSOLUTE SEGMENTED NEUTROPHIL: 906 CELLS/uL
  BASOPHIL: 0%
  EOSINOPHIL: 0.33%
  ERYTHROCYTE COUNT: 5.6 x10E6/uL
  HEMATOCRIT: 35.4%
  HEMOGLOBIN: 13.42 G/DL
  LEUKOCYTE COUNT: 9.73 x10E3/uL
  LYMPHOCYTE: 87.83%
  MEAN CORPUSCULAR HEMOGLOBIN: 23.98 pg
  MEAN CORPUSCULAR HEMOGLOBIN CONCENTRATION: 37.92 G/DL
  MEAN CORPUSCULAR VOLUME: 63.3 fL
  MONOCYTE: 2.5%
  NEUTROPHIL: 9.33%
  NUCLEATED RED BLOOD CELLS: 0 /100WBC
  PLATELET COUNT: 1032 x10E3/uL
  ALANINE AMINOTRANSFERASE: 72.83 u/L
  ALBUMIN: 4 G/DL
  ALKALINE PHOSPHATASE: 322.83 u/L
  ASPARTATE AMINOTRANSFERASE: 102.67 u/L
  BLOOD UREA NITROGEN: 12 mg/dL
  CARBON DIOXIDE: 34.33 mmol/L
  CHLORIDE: 97.67 MEQ/L
  CHOLESTEROL: 82.5 mg/dL
  CREATINE PHOSPHOKINASE: 410.33 u/L
  CREATININE: 0.18 mg/dL
  GLUCOSE: 164.5 mg/dL
  LACTATE DEHYDROGENASE: 119.5 u/L
  LIPASE: 11.83 u/L
  PHOSPHORUS: 9.52 mg/dL
  POTASSIUM: 5.56 MEQ/L
  SODIUM: 142.48 MEQ/L
  TOTAL BILIRUBIN: 0.18 mg/dL
  TOTAL PROTEIN: 5.77 G/DL
  URIC ACID: 0.48 mg/dL
[2]
  ABSOLUTE BASOPHIL: 0 CELLS/uL
  ABSOLUTE EOSINOPHIL: 0 CELLS/uL
  ABSOLUTE LYMPHOCYTE: 9065 CELLS/uL
  ABSOLUTE MONOCYTE: 341.33 CELLS/uL
  ABSOLUTE SEGMENTED NEUTROPHIL: 527 CELLS/uL
  BASOPHIL: 0%
  EOSINOPHIL: 0%
  ERYTHROCYTE COUNT: 5.25 x10E6/uL
  HEMATOCRIT: 34.08%
  HEMOGLOBIN: 13.5 G/DL
  LEUKOCYTE COUNT: 9.93 x10E3/uL
  LYMPHOCYTE: 91.17%
  MEAN CORPUSCULAR HEMOGLOBIN: 25.7 pg
  MEAN CORPUSCULAR HEMOGLOBIN CONCENTRATION: 39.62 G/DL
  MEAN CORPUSCULAR VOLUME: 64.93 fL
  MONOCYTE: 3.33%
  NEUTROPHIL: 5.5%
  NUCLEATED RED BLOOD CELLS: 0 /100WBC
  PLATELET COUNT: 1077.5 x10E3/uL
  ALANINE AMINOTRANSFERASE: 57.83 u/L
  ALBUMIN: 4.07 G/DL
  ALKALINE PHOSPHATASE: 319.17 u/L
  ASPARTATE AMINOTRANSFERASE: 83.33 u/L
  BLOOD UREA NITROGEN: 13.67 mg/dL
  CARBON DIOXIDE: 30.83 mmol/L
  CHLORIDE: 98.33 MEQ/L
  CHOLESTEROL: 64.83 mg/dL
  CREATINE PHOSPHOKINASE: 263.67 u/L
  CREATININE: 0.2 mg/dL
  GLUCOSE: 182.83 mg/dL
  LACTATE DEHYDROGENASE: 124 u/L
  LIPASE: 10.5 u/L
  PHOSPHORUS: 10 mg/dL
  POTASSIUM: 5.78 MEQ/L
  SODIUM: 142.48 MEQ/L
  TOTAL BILIRUBIN: 0.2 mg/dL
  TOTAL PROTEIN: 6 G/DL
  URIC ACID: 0.7 mg/dL
[3]
  ABSOLUTE BASOPHIL: 0 CELLS/uL
  ABSOLUTE EOSINOPHIL: 83.33 CELLS/uL
  ABSOLUTE LYMPHOCYTE: 10800 CELLS/uL
  ABSOLUTE MONOCYTE: 251.33 CELLS/uL
  ABSOLUTE SEGMENTED NEUTROPHIL: 1265.33 CELLS/uL
  BASOPHIL: 0%
  EOSINOPHIL: 0.67%
  ERYTHROCYTE COUNT: 5.15 x10E6/uL
  HEMATOCRIT: 32.47%
  HEMOGLOBIN: 12.83 G/DL
  LEUKOCYTE COUNT: 12.4 x10E3/uL
  LYMPHOCYTE: 86.67%
  MEAN CORPUSCULAR HEMOGLOBIN: 24.97 pg
  MEAN CORPUSCULAR HEMOGLOBIN CONCENTRATION: 39.5 G/DL
  MEAN CORPUSCULAR VOLUME: 63.07 fL
  MONOCYTE: 2.33%
  NEUTROPHIL: 10.33%
  NUCLEATED RED BLOOD CELLS: 0 /100WBC
  PLATELET COUNT: 980 x10E3/uL
  ALANINE AMINOTRANSFERASE: 64 u/L
  ALBUMIN: 3.83 G/DL
  ALKALINE PHOSPHATASE: 379.67 u/L
  ASPARTATE AMINOTRANSFERASE: 79.67 u/L
  BLOOD UREA NITROGEN: 12.33 mg/dL
  CARBON DIOXIDE: 26 mmol/L
  CHLORIDE: 101 MEQ/L
  CHOLESTEROL: 69.33 mg/dL
  CREATINE PHOSPHOKINASE: 212.67 u/L
  CREATININE: 0.29 mg/dL
  GLUCOSE: 163 mg/dL
  LACTATE DEHYDROGENASE: 145.67 u/L
  LIPASE: 16 u/L
  PHOSPHORUS: 10.33 mg/dL
  POTASSIUM: 5.62 MEQ/L
  SODIUM: 142.37 MEQ/L
  TOTAL BILIRUBIN: 0.2 mg/dL
  TOTAL PROTEIN: 5.4 G/DL
  URIC ACID: 0.83 mg/dL
[4]
  ABSOLUTE BASOPHIL: 0 CELLS/uL
  ABSOLUTE EOSINOPHIL: 0 CELLS/uL
  ABSOLUTE LYMPHOCYTE: 9456 CELLS/uL
  ABSOLUTE MONOCYTE: 276.33 CELLS/uL
  ABSOLUTE SEGMENTED NEUTROPHIL: 701 CELLS/uL
  BASOPHIL: 0%
  EOSINOPHIL: 0%
  ERYTHROCYTE COUNT: 5.11 x10E6/uL
  HEMATOCRIT: 34.43%
  HEMOGLOBIN: 13.2 G/DL
  LEUKOCYTE COUNT: 10.43 x10E3/uL
  LYMPHOCYTE: 90.67%
  MEAN CORPUSCULAR HEMOGLOBIN: 25.9 pg
  MEAN CORPUSCULAR HEMOGLOBIN CONCENTRATION: 38.37 G/DL
  MEAN CORPUSCULAR VOLUME: 67.47 fL
  MONOCYTE: 2.67%
  NEUTROPHIL: 6.67%
  NUCLEATED RED BLOOD CELLS: 0 /100WBC
  PLATELET COUNT: 1124 x10E3/uL
  ALANINE AMINOTRANSFERASE: 58.33 u/L
  ALBUMIN: 4.1 G/DL
  ALKALINE PHOSPHATASE: 361 u/L
  ASPARTATE AMINOTRANSFERASE: 79.67 u/L
  BLOOD UREA NITROGEN: 10.67 mg/dL
  CARBON DIOXIDE: 30.67 mmol/L
  CHLORIDE: 95 MEQ/L
  CHOLESTEROL: 65.67 mg/dL
  CREATININE: 0.16 mg/dL
  GLUCOSE: 174.33 mg/dL
  LACTATE DEHYDROGENASE: 154.67 u/L
  LIPASE: 9.67 u/L
  PHOSPHORUS: 10.87 mg/dL
  POTASSIUM: 5.33 MEQ/L
  SODIUM: 137.97 MEQ/L
  TOTAL BILIRUBIN: 0.17 mg/dL
  TOTAL PROTEIN: 5.97 G/DL
  URIC ACID: 0.7 mg/dL
